Consider 3 molecules from patent US9017935B2, “HIV-1 latency model for high throughput screening” (priority 2005, dated 2015).

Data set [1] relates to latent HIV-1 proviruses. The conditions noted are these: background, literature; cited from earlier work.
For data set [2] the following is noted: recently reported (ref. 43); cited from earlier work.
Data set [3] relates to latent HIV-1 vector provirus in NLE-S-G infected SupT1 cells. As to the kind of experiment: SEAP assay, mass population of NLE-S-G infected SupT1 cells. In kind it is cell-based. The conditions noted are these: mass population three weeks post-infection, TNF-α 100 ng/ml, four days post activation. The source says: The infected mass population of cells was next tested for its ability to establish a latent infection. The infected mass population of SupT1 cells was maintained in culture for one month. […] This was also reflected in the reduction of SEAP expression by the third week (FIG. 2C). It was shown in previous studies that tumor necrosis factor (TNF)-α could activate HIV-1 virus production from latently infected cell lines (30).
1×10^6 or 1×10^5 cells from the clonal cell lines or mass populations of infected cells were resuspended in RPMI media with or without the activator. At the indicated day post plating, samples were taken to determine the activity of SEAP. The assay was performed using a SEAP Detection kit (BD Biosciences, Palo Alto, Calif.) according to the manufacturer's protocol. The relative light units (RLU) were measured with a tube luminometer (Turner Designs 20/20) or a MLX Microtiter Plate Luminometer (DYNEX Technologies).

In data set [4] the test system is latent HIV-1 vector provirus in 24ST1NLESG cells. As to the kind of experiment: SEAP assay for late gene expression, 24ST1NLESG cells. The following applies: for fold induction in SEAP activity: TNF-α 50 ng/ml. In kind it is cell-based. As for the experimental part: (§1) FIG. 3. Reactivation of early and late viral gene expression in three clonal cell lines by TNF-α. (A) 19ST1NLESG, 24ST1NLESG, and 29ST1NLESG cells (10^6/ml) were exposed to TNF-α (50 ng/ml) and four days after gfp expressing cells were analyzed by flow cytometry. The left panels show the histograms of unstimulated cells, and the right panels represent the histogram analysis of TNF-α (50 ng/ml) stimulated cells. Numbers show the percentages of gfp positive cells. (B) SEAP in the cultured media of untreated and TNF-α (50 ng/ml) stimulated 19ST1NLESG, 24ST1NLESG, 29ST1NLESG cells two and four days post plating. (C) Fold induction of SEAP expression in 19ST1NLESG, 24ST1NLESG, and 29ST1NLESG cells (10^6/m1) after stimulation with TNF-α (50 ng/ml). Readings were taken on the second and fourth days post activation. Results shown are the means and standard deviations of one of three representative experiments.
FIG. 4. SEAP activation in 24ST1NLESG cells at different concentrations of TNF-α. SEAP synthesis by 24ST1NLESG cells (10^6/ml) four days post-activation with various concentrations (0.1 to 100 ng/ml) of TNF-α. The numbers above the bars show the fold induction of enzymatic activity calculated as ratio between the average value of RLU per sample induced cells compared to the mean RLU value of uninduced cells. RLU, relative light units. Results shown are the means and standard deviations of one of three representative experiments.
(§2) In order to provide a well characterized system to identify molecules that can activate latent virus, SupT1 cell clones harboring latent vector provirus were isolated. […] Even at 0.1 ng/ml of TNF-α induction could be detected yielding SEAP activity 4-fold above background (FIG. 4).
(§3) 1×10^6 or 1×10^5 cells from the clonal cell lines or mass populations of infected cells were resuspended in RPMI media with or without the activator. […] The relative light units (RLU) were measured with a tube luminometer (Turner Designs 20/20) or a MLX Microtiter Plate Luminometer (DYNEX Technologies).

Data set [5] relates to latent HIV-1 vector provirus in 19ST1NLESG cells. The experiment in a line: SEAP assay for late gene expression, 19ST1NLESG cells. Type of data set: cell-based. The following applies: TNF-α 50 ng/ml, day 2 post treatment. The protocol: as §1, with “Results shown are the means and standard deviations of one of three representative experiments.” left out
as §2, §3

Data set [6] relates to latent HIV-1 vector provirus in NLE-S-G infected SupT1 cells. As to the kind of experiment: Flow cytometry of GFP positive cells, mass population of NLE-S-G infected SupT1 cells. The conditions noted are these: mass population three weeks post-infection (2% before treatment), TNF-α 100 ng/ml, analyzed forty-eight hours after exposure. Type of data set: cell-based. The source says:
FIG. 2. Infection of SupT1 cells by NLE^-S-G vector virus. (A) The upper panels depict uninfected SupT1 cells. The lower panels show SupT1 cells that have been infected with NLE-S-G virus. The phase contrast (left panels) and fluorescence microscopy (right panels) images were captured five days post-infection. (B) Flow cytometric analysis of SupT1 cells either mock infected or infected with NLE^−S-G analyzed at day five post-infection or three weeks post-infection. […] Three weeks post infection mass population of unsorted NLE^−S-G infected SupT1 cells (10^6 cells/ml) were stimulated with TNF-α (100 ng/ml). Cells were analyzed forty-eight hours after exposure. Numbers represent the percentages of gfp positive cells. (C) SEAP activity in the conditioned media from NLE^−S-G infected unsorted SupT1 cells (10^6 cells/ml) four days, three weeks and one month post-infection. Three weeks post-infection, a sample (10^6 cells/ml) of a mass population of NLE^−S-G infected SupT1 cells was treated with TNF-α (100 ng/ml) and analyzed four days post activation. RLU, relative light units.
The infected mass population of cells was next tested for its ability to establish a latent infection. The infected mass population of SupT1 cells was maintained in culture for one month. […] This was also reflected in the reduction of SEAP expression by the third week (FIG. 2C). […]
(Flow cytometry measures light scatter and fluorescence of single cells or particles in a stream.)

Data set [7] deals with latent HIV-1 vector provirus in 24ST1NLESG cells. The experiment in a line: HIV-1 p24gag ELISA, 24ST1NLESG cells. Type of data set: cell-based. The following applies: TNF-α 50 ng/ml. As for the experimental part: FIG. 5. HIV-1 Gag p24 protein production in 24ST1NLESG cells. HIV-1 Gag p24 protein was detected in the cultured media of untreated and TNF-α (50ng/ml) treated 24ST1NLESG cells (10^6/ml) two and four days post-plating. Results shown are the means and standard deviations of one or two representative experiments.
To further characterize the 24ST1NLESG cell line, p24^gag expression was monitored using the ELISA after treatment with TNF-α (50 ng/ml) (FIG. 5).
HIV gag transfer assay. 1×10^6 SupT1 infected cells (latent mass population and clonal cell lines) were plated followed by harvesting supernatant one week later. Samples were collected both from TNF-α activated and untreated cells. They were passed through a 0.45-μm pore-size filter and used to inoculate […] 10^6 parental SupT1 cells for 24 h. The cells were washed twice with PBS and resuspended in fresh media. The same process was repeated once again with conditioned media from the targeted parental cells, and a new batch of SupT1 cells was treated. Passing the conditioned media over two sets of virgin SupT1 cells helps to assure that the carryover of gag protein in the samples will be eliminated and only the de novo synthesized protein, if present, will be assessed. […] Samples were considered virus free when the p24^gag concentration was below the detection threshold, which for this assay, was determined to be 10 pg/ml.
A general note: An ELISA detects its analyte on a solid surface through an enzyme-linked reagent.

Data set [8] shares this test system. As to the kind of experiment: Quantitative real-time RT-PCR of HIV-1 mRNA, 24ST1NLESG cells. In kind it is cell-based. The following applies: TNF-α 50 ng/ml, day 4 post-stimulation, normalized to β-actin. As for the experimental part: FIG. 6. Real-time RT-PCR for relative quantification of HIV-1 mRNA levels in 24ST1NLESG cells before and after activation from latency. Quantitative real-time RT-PCR was performed with RNA isolated from 24ST1NLESG cells (10^6/ml) following one and four days after stimulation with TNF-α (50 ng/ml). cDNA was synthesized with polyT oligo, and the reactions were completed with primers to viral (Rev2) and cellular (β-actin) genes with SYBR green detection. The ‘Delta-delta method’ (PE Applied Biosystems) was used to compare the relative expression results (ΔCT) between the values obtained from the RNA samples from stimulated cells to the values obtained from RNA isolated from untreated cells. The results were normalized to the expression of β-actin. […]
The consistent reactivation of viral genes as evidenced by the pattern of expression of the three markers assayed correlated with an increase in the relative levels of total viral mRNA. The relative amount of total HIV-1 mRNA was determined by quantitative real-time PCR using primers to the second exon of rev (Rev2). […] Therefore, only the level of mature polyadenylated RNA was detected.
The relative ratio of viral RNA after stimulation of 24ST1NLESG latent cells was determined as described in the Examples using the relative RNA results obtained for the unstimulated 24ST1NLESG cells as a control. β-actin was used as a reference gene. […]
A general note: Real-time PCR tracks product formation cycle by cycle.

The test system of data set [9] is latent HIV-1 vector provirus in 29ST1NLESG cells. The experiment in a line: SEAP assay for late gene expression, 29ST1NLESG cells. In kind it is cell-based. The conditions noted are these: TNF-α 50 ng/ml, day 2 post treatment. As for the experimental part: as §1, with “Results shown are the means and standard deviations of one of three representative experiments.” left out
as §2, §3

`CCCCCCCCCCCCCC(=O)O[C@@H]1[C@@H](C)[C@@]2(O)[C@@H](C=C(CO)C[C@]3(O)C(=O)C(C)=C[C@@H]23)[C@@H]2C(C)(C)[C@]12OC(C)=O` [PMA, phorbol 12-myristate 13-acetate]: in data set [1], the “activation of latent virus” value is listed as “could stimulate latent virus”.

As for `CC(=O)O[C@@]12C[C@@H](C)[C@@]3(O)[C@@H](C=C(CO)C[C@]4(O)C(=O)C(C)=C[C@@H]34)[C@@H]1C2(C)C` [prostratin], in data set [1], the “activation of latent virus” value is “able to activate latent virus”. Besides, the cytotoxicity entry in [2] is listed as “significant cytotoxicity”.

As for TNF-α, the “increase in SEAP activity” value in data set [3] came to 400 fold. For the same molecule, the “SEAP activity above background” value in [4] (0.1 ng/ml TNF-α, four days post-activation) was determined as 4 fold. Further, the “fold induction in SEAP activity” value in data set [4] (day 2 post treatment) is recorded as around 400 fold; in data set [4] (day 4), “approximately 600 fold”; in data set [5], “approximately 50 fold”; in [9] it was around 150 fold. For the same molecule, in data set [6], the “number of GFP-positive cells after treatment” value came to 19%. The figures for the “concentration of p24gag above background” value in data set [7] (2 days post-activation) and in [7] (4 days post-activation) were 50 fold and 100 fold, respectively. Besides, the “increase in relative ratio of viral RNA” value in data set [8] is recorded as “at least 100 fold”.
